The source of these data is ChEMBL document CHEMBL1201862, “PubChem BioAssay data set” (2004).

For experiment [1], the system named is MDA-N. The experiment is described as follows: NCI-60 cell line screen, 48 h.
Experiment [2] has as its system BT-549. The experiment is described as follows: NCI-60 cell line screen, 48 h.

Structures can show the parent of a compound that is named as a salt.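 Dose response: 5 concentrations. Exposure: 48 h. Format: 96-well plates. Endpoint: linear interpolation; highest concentration if not reached. GI50 marks 50% less growth.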 The source made the active and inactive calls. Cut-off read from the data, not from the text of the source: active = GI50 up to about 1.1 µM and inactive = higher. Where a SMILES comes first, the peptide text is derived from it. The star is where a group is joined. Boc = CC(C)(C)OC(=O)*

Consider `CCCCCCCCCCCCn1c(=O)cc(NCCCC)c2cc3c(NCCCC)cc(=O)n(CCCCCCCCCCCC)c3nc21`, for which the GI50 in experiment [1] and in experiment [2] was > 100 µM (inactive) in each case.
`C=C1CC/C=C(\C)CCC[C@H](C)[C@@H](O)[C@@H]2OC(=O)C(=C)[C@@H]2C[C@H]1O`: the GI50 was 8.47 µM (inactive) in experiment [1] and 0.288 µM (active) in experiment [2].
`Cc1c2c(n3c(nc4ccccc43)c1C#N)N(c1ccc(F)cc1)CC2`: the GI50 in experiment [2] is > 100 µM (inactive).
Take `CN(C)c1ccc(/C=N/c2nc3cc4sc(/N=C/c5ccc(N(C)C)cc5)nc4cc3s2)cc1`: in experiment [2], the GI50 is 71 µM (inactive).
`O=C(Nc1sccc1S(=O)(=O)c1ccc(Cl)cc1)c1ccccc1`: the GI50 in experiment [1] and in experiment [2] was > 100 µM (inactive) in each case.
Turning to `CC(C)[Si](OCC/C=C/C1CCC(=O)C1C(O)C1CCCCC1)(C(C)C)C(C)C` (stereo not drawn), the results for the GI50 in experiment [1] and in experiment [2] were 19.2 µM (inactive) and 18.9 µM (inactive), respectively.
On the same counts, the results for `O=C(/C=C/c1ccc([N+](=O)[O-])cc1)N1CCN(CCOC(c2ccc(F)cc2)c2ccc(F)cc2)CC1` are 27.1 µM (inactive) and > 100 µM (inactive).
Taken in the same sequence, the figures for `COc1ccc2c(c1)/C(=C(\C(Cl)=C(\Cl)N1CCCCC1)[N+](=O)[O-])N2` were > 100 µM (inactive) and 98.6 µM (inactive).
On the same counts, the results for `Cn1c(=O)c2[nH]c(N=O)nc2n(C)c1=O` are > 100 µM (inactive) and > 100 µM (inactive).
As for `COc1cc(-c2ccccc2)cn2c1nc1ccccc12`, the GI50 in experiment [1] was 17.7 µM (inactive); in experiment [2], 17.8 µM (inactive).
Consider `O=CC(I)=C(c1ccccc1)c1ccccc1`, for which the GI50 is 17 µM (inactive) in experiment [1] and 15.1 µM (inactive) in experiment [2].
On to `CN(C)c1c(Cl)c(=O)oc2c1ccc1nc(-c3ccccc3)sc12`, for which the GI50 in experiment [1] and in experiment [2] was > 100 µM (inactive) each time.
On to `Nc1ncnn2c(C3OC(CO)C(O)C3O)ccc12` (stereo not drawn), for which the values for the GI50 in experiment [1] and in experiment [2] were 0.163 µM (active) and 0.175 µM (active), respectively.
Turning to `Cn1c(=O)oc2cc(C(=S)N3CCC(Cc4ccccc4)CC3)ccc21`, the GI50 in experiment [1] and in experiment [2] was > 100 µM (inactive) throughout.
For `COc1ccc(/C=C2\N=C(c3ccccc3)OC2=O)cc1OC(C)=O`, in experiment [2], the GI50 is > 100 µM (inactive).
Regarding `CCOC1C=CC(=O)C(CO)O1` (stereo not drawn), the GI50 was 15.3 µM (inactive) in experiment [1] and 11.6 µM (inactive) in experiment [2].
Taken in the same sequence, the figures for `CC(C)(C)OC(=O)NC(Cc1ccc(OCc2ccccc2)cn1)C(N)=O` (stereo not drawn) were 68.5 µM (inactive) and > 100 µM (inactive).
In the case of `Cc1cccc(NC(=S)Nc2ccc(Cl)cc2)n1`, the GI50 in experiment [2] was > 100 µM (inactive).
For `CCOC(=O)c1nc2ccc(C(F)(F)F)cc2nc1Nc1ccc(F)cc1`, the GI50 in experiment [1] and in experiment [2] was > 100 µM (inactive) in each case.
Turning to `Cc1ccc(C(=O)c2[nH]c(NCc3ccccc3)c(C(=S)Nc3ccccc3)c2N)cc1`, the GI50 in experiment [1] was 3.51 µM (inactive); in experiment [2] it was 7.94 µM (inactive).
Take `CC(SC(=S)N1CCCC1)C(=O)Nc1nnc(-c2ccc(Cl)cc2)o1` (stereo not drawn): the GI50 in experiment [2] was 39.8 µM (inactive).
For `FC(F)(F)c1ccccc1N1CCN(c2nc(-c3cccs3)nc3ccc(Br)cc23)CC1`, in experiment [2], the GI50 is 50 µM (inactive).
As to `CCCCCCC(C)CC(CCCCCC)NCCOC(=O)c1ccc([N+](=O)[O-])cc1` (stereo not drawn), in experiment [2], the GI50 is 16.4 µM (inactive).
Take `COc1cc(C2SCC(=O)N2c2cccc(Cl)c2)cc(OC)c1OC` (stereo not drawn): the GI50 was 17.2 µM (inactive) in experiment [1] and 26.4 µM (inactive) in experiment [2].
Turning to `COc1ccc2cc(C(=O)Nc3ccc(O)c(C(=O)O)c3)ccc2c1OC`, in experiment [1], the GI50 is > 100 µM (inactive).
`COC(=O)[C@H](COC(C)(C)C)NC(=O)N[C@H](C)c1ccccc1`: the GI50 in experiment [1] and in experiment [2] was > 100 µM (inactive) throughout.
Consider `COc1ccc(N2C(=O)C3c4[nH]c5c(C)cccc5c4C4CCC(C(C)(C)C)CC4C3C2=O)cc1` (stereo not drawn), for which the GI50 in experiment [1] is > 10 µM (inactive).
For the molecule `CCOC(=O)CCN1C(=O)C(=O)N(c2ccc(OC)cc2)C1=S`, the GI50 in experiment [1] is 97.5 µM (inactive).
For `COC(=O)c1cc(S(=O)(=O)NC2=NNC(C)CN2)c(S)cc1Cl` (stereo not drawn), the GI50 was 35.3 µM (inactive) in experiment [1] and > 100 µM (inactive) in experiment [2].
For the molecule `Cc1cccc2c1NC(=S)[C@@H]1CCCN1C2=O`, the GI50 in experiment [1] and in experiment [2] was > 100 µM (inactive) throughout.
`Cc1ccc(S(=O)(=O)NCCCSCCO)cc1`: the GI50 in experiment [1] is 55 µM (inactive).
In the case of `C=C(Cl)CN1c2ccccc2C=Cc2ccccc21`, the results for the GI50 in experiment [1] and in experiment [2] were 15 µM (inactive) and 46 µM (inactive), respectively.
`N=C(N)c1ccc(C(NC(=O)CNS(=O)(=O)c2ccc3ccccc3c2)P(=O)(Oc2ccccc2)Oc2ccccc2)cc1` (stereo not drawn): the figures for the GI50 in experiment [1] and in experiment [2] were 47.6 µM (inactive) and 19.2 µM (inactive), respectively.
Consider `CC1(C)C2CCC3CC(CCC#N)CCC3C21C#N` (stereo not drawn), for which the GI50 in experiment [1] was > 100 µM (inactive).
Consider `Cc1nnc2n1N=C(c1cc(F)c(Cl)cc1Cl)/C(=C/c1ccc(-c3ccc([N+](=O)[O-])cc3)o1)S2`, for which, in experiment [2], the GI50 is 58.2 µM (inactive).
Take `Cc1c(C)c(S(=O)(=O)N(CCCN)OCCCN)c(C)c2c1OC(C)(C)CC2`: the GI50 was 15.8 µM (inactive) in experiment [1] and 17.5 µM (inactive) in experiment [2].
Taken in the same sequence, the figures for `Cn1c(N)cc(=O)nc1N` were > 100 µM (inactive) and > 100 µM (inactive).
Taken in the same sequence, the figures for `O=C(/C(=C(/Br)I)c1ccccc1)c1ccccc1` were 28.5 µM (inactive) and 22.9 µM (inactive).
In the case of `CC[C@H](C)[C@H]1NC(=O)[C@@H](NC(=O)[C@@H](CC(C)C)N(C)C(=O)C2CCCN2C(=O)[C@H](C)O)[C@@H](C)OC(=O)[C@H](Cc2ccccc2)N(C)C(=O)[C@@H]2CCCN2C(=O)[C@H](CC(C)C)NC(=O)[C@@H](C)C(=O)[C@H](C(C)C)OC(=O)C[C@@H]1O` (stereo partly drawn), the GI50 in experiment [1] and in experiment [2] was < 0.00625 µM (active) in each case.
`CCCCNc1nc(O)c2[nH]cnc2n1`: the GI50 in experiment [1] and in experiment [2] was > 100 µM (inactive) throughout.
Consider `C=C(C)[C@@H]1CC[C@]2(C(=O)O)CC[C@]3(C)[C@H](CC[C@@H]4[C@@]5(C)CC(=O)C(C)(C)[C@@H]5CC[C@]43C)[C@@H]12`, for which the GI50 in experiment [1] was 8.13 µM (inactive); in experiment [2] it was 10.3 µM (inactive).
Taken in the same sequence, the figures for `Oc1ccc(-c2nc(-c3cccnc3)c(-c3ccc(Cl)cc3)[nH]2)cc1` were 12.6 µM (inactive) and 15.3 µM (inactive).
`COc1ccccc1-c1cc(O)c2ccc(C)nc2n1`: in experiment [2], the GI50 was > 100 µM (inactive).
For the molecule `COc1cc(OC)c2c(=O)c(O)c(-c3ccc(OC)c(OC)c3)oc2c1`, the figures for the GI50 in experiment [1] and in experiment [2] were 47.8 µM (inactive) and 0.755 µM (active), respectively.
Taken in the same sequence, the figures for `COC(=O)C(Cc1c[nH]c2ccccc12)NC(=O)C(Cc1c[nH]c2ccccc12)NC(=O)C(Cc1c[nH]c2ccccc12)NC(=O)C(Cc1c[nH]c2ccccc12)NC(=O)C(Cc1c[nH]c2ccccc12)NC(=O)C(Cc1c[nH]c2ccccc12)NC(=O)C(Cc1c[nH]c2ccccc12)NC(=O)OC(C)(C)C` (stereo not drawn) (Boc-WWWWWWW-OMe; configuration not given here) were 63.7 µM (inactive) and > 100 µM (inactive).
For `COc1cc(O)c2c(=O)c(O)c(-c3ccc(O)c(O)c3)oc2c1` [RHAMNETIN], in experiment [1], the GI50 was 19.8 µM (inactive).
On to `CN(C)CCOc1ccc(/C(=C(/CCCl)c2ccccc2)c2ccccc2)cc1` [TOREMIFENE CITRATE], for which the GI50 in experiment [1] is 16.4 µM (inactive).
